In brackets after ≈: the same amount, converted by molar mass.
Assays:
[1] = target: T1, M1R (Homo sapiens, UniProt P11229); conditions: cited from earlier work
T1 sequence (P11229 1-460): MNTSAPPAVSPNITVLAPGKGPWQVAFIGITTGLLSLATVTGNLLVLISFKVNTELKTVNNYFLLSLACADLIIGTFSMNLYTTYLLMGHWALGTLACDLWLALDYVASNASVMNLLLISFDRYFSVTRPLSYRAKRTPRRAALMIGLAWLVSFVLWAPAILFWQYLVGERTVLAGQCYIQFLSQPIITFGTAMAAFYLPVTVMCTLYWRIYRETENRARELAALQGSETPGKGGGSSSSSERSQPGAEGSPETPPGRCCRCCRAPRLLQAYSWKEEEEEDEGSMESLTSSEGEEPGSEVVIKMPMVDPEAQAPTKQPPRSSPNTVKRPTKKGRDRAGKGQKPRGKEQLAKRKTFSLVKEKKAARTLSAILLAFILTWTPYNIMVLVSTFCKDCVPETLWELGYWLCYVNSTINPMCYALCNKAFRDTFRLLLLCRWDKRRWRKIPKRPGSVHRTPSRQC

[2] = Plasma pharmacokinetics of topical pirenzepine formulations in healthy volunteers, 14 days; conditions: any subject, any time point, any day
Description: PK: Blood samples were collected for the determination of pirenzepine concentration at the following nominal times:
Blood samples on Days 1, 7, and 14 were collected via either the indwelling intravenous (IV) cannula to reduce the frequency of direct venipuncture (at the discretion of the Investigator).
A validated liquid chromatography tandem mass-spectroscopy method (LLOQ: 0.1 ng/mL and ULOQ: 200 ng/mL) was used to determine the concentration of pirenzepine in plasma. […] For the pirenzepine concentration analysis in biopsy samples, a qualified method (LLOQ 1.00 mg/mL) was used.
Pirenzepine concentrations in plasma and skin biopsies were evaluated using Phoenix™ WinNonlin® version 8.0 (Pharsight Corporation, USA) and Microsoft® Excel® 2010 (Microsoft Corporation, USA).
Pharmacokinetic Population: According to the statistical analysis plan, the PK population comprised all randomized subjects with evaluable plasma concentrations of pirenzepine (ie, subjects with plasma concentrations considered sufficient and interpretable [at the discretion of the pharmacokineticist]). […] Any exclusion from the PK population was determined by the pharmacokineticist on blinded data, after database lock and prior to unblinding the study. […]
The goodness of fit of the regression was evaluated using the adjusted square of the correlation coefficient (R2 adjusted). […]

[3] = cited from earlier work
[4] = system: diabetic mice; conditions: topical; cited from earlier work

For `O=C(CCNS(=O)(=O)c1cccc2nsnc12)N1CCN(c2ccncc2)CC1` [VU0255035], the “selectivity to M1R relative to M2, M3, M4 and M5 receptors” value [1] is listed as 75 times.

In the case of `O=C1Nc2cccnc2N(C(=O)CN2CCNCC2)c2ccccc21` [desmethyl pirenzepine], the “plasma level of the primary metabolite” value [2] is reported as “not quantifiable”.

In the case of `CN1CCN(CC(=O)N2c3ccccc3C(=O)Nc3cccnc32)CC1` [pirenzepine], the “Log P” value [3] is given as 0.6, the Solubility [3] is given as 68.2 µg/mL (≈ 194 µM) and the intraepidermal nerve fibers [4] is given as “prevented and reversed loss of intraepidermal nerve fibers”. For the same molecule, the “motor nerve conduction velocity” value [4] was “prevented deficits in motor nerve conduction velocity”, the sub-epidermal nerve plexus [4] was “prevented loss of sub-epidermal nerve plexus” and the tactile allodynia [4] was “prevented tactile allodynia”. The thermal hypoalgesia [4] was “prevented and reversed the development of thermal hypoalgesia”.

— patent US20220273671A1, “TOPICAL FORMULATIONS FOR TREATMENT OF PERIPHERAL NEUROPATHIES” (priority 2019, published 2022)
